# Assay results published in article PMC5403950, “Mechanism Underlying the Reversal of Drug Resistance in P-Glycoprotein-Expressing Leukemia Cells by Pinoresinol and the Study of a Derivative” (Frontiers in Pharmacology, 2017).
# Where “and” joins values, the source holds several entries; their conditions need not be identical. Identical values can stand only once. Entries after “also recorded” stand apart in the source; their conditions may differ. Counter-ions that a name gives are not always drawn. Like-named read-outs stand apart in the source and are kept apart here.
# Columns and labels:
# K562 cells [1] = experiment: Multidrug resistance reversal assay (MTT) with DOX, sensitive parental line; type: cell-based, human; settings: for Effect on DOX sensitivity in K562: compound at highest non-toxic concentration (Table 1)
# Method: (§1) Briefly, 5 × 10^4 Lucena 1 cells per well were seeded in 96-well plates containing RPMI-1640 medium in the presence of DOX alone or in combination with the tested compounds dissolved in ethanol or acetonitrile as appropriate. DOX was added to reach final concentrations of 0.05–431 μM. The compounds were assayed at the highest non-toxic concentration observed in both cell lines (cytotoxicity ≤ 20%, Cytotoxicity (%) = [1-(Optical density treatment-Optical density DMSO)/(Optical density control-Optical density DMSO)] x 100, determined by MTT proliferation assay (Joray et al., [2015]); maximum concentration tested 40 μg mL^−1). Following the primary screening, compounds 14 and 16 (dissolved in ethanol) were tested at serial dilutions. […] Subsequently, the supernatants were removed and replaced with 100 μL DMSO to solubilize the resulting purple formazan crystals produced from metabolically viable cells. Absorbance was measured with an iMark micro-plate reader (Bio-Rad, USA) at 595 nm.
# (§2) The same reversal assay was performed in K562 cells, in order to discard a decrease in the IC50 of DOX due to effects other than P-gp inhibition. The reversal fold (RF) values for the tested compounds, which indicate their capacity to reduce resistance to DOX, were calculated by dividing the IC50 of DOX alone by the IC50 of DOX in the presence of the tested compounds (Xu et al., [2014]).
# Lucena 1 cells [2] = experiment: Multidrug resistance reversal assay (MTT) with DOX; type: cell-based, human; settings: for Effect on DOX toxicity in Lucena 1: compound at highest non-toxic concentration (Table 1)
# Method: as §1, §2
# K562 cells [3] = experiment: Reversal assay (MTT) with VLB, sensitive parental line; type: cell-based, human
# Lucena 1 cells [4] = experiment: Reversal assay (MTT) with VLB; type: cell-based, human
# Method: Subsequently, the supernatants were removed and replaced with 100 μL DMSO to solubilize the resulting purple formazan crystals produced from metabolically viable cells.
# The same reversal assay was performed in K562 cells, in order to discard a decrease in the IC50 of DOX due to effects other than P-gp inhibition.
# K562 cells [5] = experiment: Doxorubicin intracellular accumulation assay (flow cytometry), K562; type: cell-based, human; settings: up to the maximum concentration evaluated
# From the text: […]. […] Viability controls were included in all the experiments.
# P-gp [6] = test system: P-gp; parameters: method as in Tamaki et al., 2008; settings: applied at 50 and 100 μM; ref Tamaki et al., 2008; cited from earlier work
# [7] = test system: KB-C2 cells overexpressing P-gp; parameters: method as in Nabekura et al., 2008; settings: ref Nabekura et al., 2008; cited from earlier work
# P-gp [8] = experiment: Surface expression of P-gp (FITC anti-human P-gp, flow cytometry), Lucena 1; type: cell-based; settings: 14 at 112 μM, 48 h
# Method: (§3) To determine the effect of 14 on P-gp surface expression, Lucena 1 or K562 cells at a density of 5 × 10^4 cells mL^−1 were incubated in the presence of 14, dissolved in ethanol at 112 μM (maximum non-cytotoxic concentration, in order to ensure the presence of the effect) or 1% ethanol (control) for 24 and 48 h. Then, cells were washed with cold PBS and labeled for 30 min at 4°C in the dark with FITC-conjugated mouse anti-human P-gp antibody, which binds to an external epitope of P-gp, according to the manufacturer's instructions. Finally, cells were washed and suspended with ice-cold PBS and fluorescence intensity was determined in 10,000 individual cells by FACScan flow cytometry. FITC fluorescence was measured at an excitation wavelength of 488 nm and emitted light was collected with a 530/30 nm bandpass filter.
# P-gp [9] = molecular target: T1, P-gp (Homo sapiens, UniProt P08183); experiment: Doxorubicin efflux assay (flow cytometry); type: cell-based; parameters: Lucena 1 was chosen as a well-characterized resistant cell line in which P-gp overexpression is the exclusive mechanism of acquired resistance; endogenous in cells; host or cells: Lucena 1 (drug-selected, P-gp overexpressing) and parental K562 human CML cells; settings: Lucena 1
# Method: […]. […] After washing, cells were incubated for 30 min with 14. […] Cells were then washed with ice-cold PBS and the intracellular DOX-associated MFI of 50,000 individual cells was determined by flow cytometry as previously described.
# P-gp [10] = molecular target: T1, P-gp; settings: Lucena 1; for % of inhibition related to verapamil (DOX accumulation): 112 μM
# P-gp [11] = experiment: Surface expression of P-gp (FITC anti-human P-gp, flow cytometry), K562; type: cell-based; settings: 14 at 112 μM, 24 and 48 h
# Method: as §3
# P-gp [12] = molecular target: T1, P-gp; experiment: P-gp ATPase activity ([…] ATPase assay kit, Sf9 membranes); type: biochemical; parameters: host or cells: Spodoptera frugiperda Sf9 cells (membrane preparation); settings: for Maximum stimulation of P-gp-ATPase activity: activation assay, at 66.7 μM, relative to maximum activation by verapamil
# Method: The ATPase reaction was subsequently stopped and the inorganic phosphate (Pi) produced was measured colorimetrically at 630 nm.
# All experiments were performed in the absence or presence of 1.2 mM of sodium orthovanadate, an ABC transporter-related ATPase inhibitor, in order to measure the vanadate-sensitive portion of the total ATPase activity. […] Membranes from Sf9 cells expressing defective P-gp were used as controls.
# K562 cells [13] = experiment: Rhodamine 123 efflux assay (flow cytometry), K562; type: cell-based, human; settings: 14 at 112 μM
# Method: Rho 123, a P-gp fluorescent substrate, is frequently employed as an indicator of P-gp activity and it was therefore used in an additional efflux study. […] Subsequently, cells were incubated with 500 ng mL^−1 of Rho 123 for 30 min. […] After washing twice with cold PBS, the amount of Rho 123 remaining in 10,000 individual cells after the efflux period was quantified by FACScan flow cytometry. Excitation was performed with a laser operating at 488 nm and the emitted fluorescence was collected through a 530/30 nm pass filter.
# P-gp [14] = molecular target: T1, P-gp; experiment: Rhodamine 123 efflux assay (flow cytometry); type: cell-based; parameters: Lucena 1 was chosen as a well-characterized resistant cell line in which P-gp overexpression is the exclusive mechanism of acquired resistance; endogenous in cells; host or cells: Lucena 1 (drug-selected, P-gp overexpressing) and parental K562 human CML cells; settings: Lucena 1; 14 at 112 μM; 30 min efflux
# K562 cells [15] = experiment: Doxorubicin efflux assay (flow cytometry), K562; type: cell-based, human; settings: 14 at 112 μM, verapamil 30 μM
# Method: Cells were then washed with ice-cold PBS and the intracellular DOX-associated MFI of 50,000 individual cells was determined by flow cytometry as previously described.
# [16] = 14 at 112 μM, verapamil as reference
# T1 sequence (P08183 whole entry): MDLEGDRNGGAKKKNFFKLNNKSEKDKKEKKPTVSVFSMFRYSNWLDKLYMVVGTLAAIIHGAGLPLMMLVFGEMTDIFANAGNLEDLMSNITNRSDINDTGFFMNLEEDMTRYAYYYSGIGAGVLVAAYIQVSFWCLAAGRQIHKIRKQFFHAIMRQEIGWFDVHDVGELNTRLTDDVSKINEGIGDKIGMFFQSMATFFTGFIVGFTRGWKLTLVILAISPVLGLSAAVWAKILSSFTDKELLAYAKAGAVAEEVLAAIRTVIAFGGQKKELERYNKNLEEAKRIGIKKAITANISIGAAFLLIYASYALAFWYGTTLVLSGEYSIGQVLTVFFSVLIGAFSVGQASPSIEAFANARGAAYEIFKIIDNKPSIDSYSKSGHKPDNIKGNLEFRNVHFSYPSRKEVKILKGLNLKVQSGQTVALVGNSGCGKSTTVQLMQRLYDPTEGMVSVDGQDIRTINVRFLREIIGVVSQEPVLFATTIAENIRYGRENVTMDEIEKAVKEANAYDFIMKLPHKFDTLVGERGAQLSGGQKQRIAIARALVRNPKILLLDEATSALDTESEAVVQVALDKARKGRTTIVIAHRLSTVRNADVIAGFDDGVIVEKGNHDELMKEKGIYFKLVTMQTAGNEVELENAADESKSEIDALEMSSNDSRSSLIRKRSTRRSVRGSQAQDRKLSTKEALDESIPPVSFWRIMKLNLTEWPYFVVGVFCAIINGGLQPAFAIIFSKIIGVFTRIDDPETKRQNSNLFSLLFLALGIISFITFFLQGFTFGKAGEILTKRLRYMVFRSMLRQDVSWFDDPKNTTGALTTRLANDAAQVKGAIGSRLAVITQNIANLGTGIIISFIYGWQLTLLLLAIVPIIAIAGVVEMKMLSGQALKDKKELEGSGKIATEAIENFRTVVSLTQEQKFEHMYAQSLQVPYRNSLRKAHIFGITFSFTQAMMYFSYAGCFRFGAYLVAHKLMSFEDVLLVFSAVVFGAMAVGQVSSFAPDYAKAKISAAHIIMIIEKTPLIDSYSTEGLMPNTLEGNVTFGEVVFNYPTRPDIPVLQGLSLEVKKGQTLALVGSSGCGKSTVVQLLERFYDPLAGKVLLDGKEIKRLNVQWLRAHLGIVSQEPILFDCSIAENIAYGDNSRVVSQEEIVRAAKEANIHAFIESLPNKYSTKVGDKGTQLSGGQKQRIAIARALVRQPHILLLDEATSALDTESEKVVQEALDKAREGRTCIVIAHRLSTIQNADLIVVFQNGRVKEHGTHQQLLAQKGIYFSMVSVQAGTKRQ
# T1 sequence (P08183 whole entry): as above
compound,measurement,setting,value
"O=C(/C=C/c1ccccc1)c1ccc(O)cc1O [Compound 6, 2′,4′-dihydroxychalcone]",Effect on DOX sensitivity in K562,K562 cells [1],caused a decrease in DOX IC50
"O=C1C[C@@H](c2ccc(O)cc2)Oc2cc(O)cc(O)c21 [Compound 8, naringenin]",Effect on DOX toxicity in Lucena 1,Lucena 1 cells [2],did not cause any effect in DOX toxicity
"CC1(C)C=Cc2c(cc3c(c2O)C(=O)CC(c2ccc(O)cc2O)O3)O1 (stereo not drawn) [Compound 9, dalenin]",Effect on DOX sensitivity in K562,K562 cells [1],caused a decrease in DOX IC50
"O=c1cc(-c2ccc(O)cc2)oc2cc(O)cc(O)c12 [Compound 10, apigenin]",Effect on DOX toxicity in Lucena 1,Lucena 1 cells [2],did not cause any effect in DOX toxicity
"O=c1c(O)c(-c2ccc(O)c(O)c2)oc2cc(O)cc(O)c12 [Compound 11, quercetin]",Effect on DOX toxicity in Lucena 1,Lucena 1 cells [2],decreased DOX sensitivity
"COc1cccc2c1C(=O)c1c(O)c3c(c(O)c1C2=O)C[C@@](O)(C(=O)CO)C[C@@H]3O[C@H]1C[C@H](N)[C@H](O)[C@H](C)O1 [DOX, Doxorubicin hydrochloride, reference compound]",IC50,"K562 cells [1]; Homo sapiens, K562, MTT 48 h, 95% confidence limits in brackets, read-out: IC50 of DOX alone",1160 nM
same,IC50,"Lucena 1 cells [2]; Homo sapiens, Lucena 1, MTT 48 h, 95% confidence limits in brackets, read-out: IC50 of DOX alone",40800 nM
same,Resistance of Lucena 1 to DOX relative to K562,Lucena 1 cells [2]; ratio of DOX IC50 values,35 fold
"CC[C@]1(O)C[C@@H]2CN(CCc3c([nH]c4ccccc34)[C@@](C(=O)OC)(c3cc4c(cc3OC)N(C)[C@H]3[C@@](O)(C(=O)OC)[C@H](OC(C)=O)[C@]5(CC)C=CCN6CC[C@]43[C@@H]65)C2)C1 [VLB, vinblastine sulfate, reference compound]",IC50,"K562 cells [3]; Homo sapiens, VLB alone",240 nM
same,IC50,"Lucena 1 cells [4]; Homo sapiens, VLB alone",2490 nM
"COc1ccc(CCN(C)CCCC(C#N)(c2ccc(OC)c(OC)c2)C(C)C)cc1OC (stereo not drawn) [Verapamil, Verapamil hydrochloride, reference compound]",DOX accumulation in K562,K562 cells [5],No such increase in MFI
(+)-pinoresinol [14 (+)-pinoresinol],Intracellular accumulation of calcein-AM,P-gp [6],increased the intracellular accumulation of calcein-AM
(-)-sesamin,Concentration from which accumulation of daunorubicin increased,[7],50 µM
(±)-pinoresinol [Compound 14],Effect on DOX sensitivity in K562,K562 cells [1],did not increase DOX sensitivity
same,P-gp expression at the membrane surface vs control,P-gp [8],less P-gp at the Lucena 1 cell membrane; also recorded: lower
same,Minimum effective concentration (MEC) in the reversal assay (potentiation of DOX toxicity from),"Lucena 1 cells [2]; Lucena 1, DOX",7 µM
same,RF Lucena 1,"Lucena 1 cells [2]; compound at 28 μM (serial dilution), DOX",3.4
same,DOX accumulation in K562,K562 cells [5],No such increase in MFI
same,Reversal fold (RF) to VLB,K562 cells [3]; [16],9 and 9.63
same,Increase in DOX-associated MFI (retention) vs control in efflux assay,"P-gp [9]; 14 at 112 μM, 30 min in DOX-free medium",1.8 fold
same,Minimum effective concentration (MEC) in the DOX efflux assay,P-gp [9]; 30 min efflux,56 µM
same,% of inhibition related to verapamil (DOX accumulation),P-gp [10]; 0 h pre-incubation,60%
same,% of inhibition related to verapamil (DOX accumulation),P-gp [10]; 0.5 h pre-incubation,73%
same,% of inhibition related to verapamil (DOX accumulation),"P-gp [10]; 1 h pre-incubation, verapamil 30 μM = maximum inhibition",79%
same,% of inhibition related to verapamil (DOX accumulation),P-gp [10]; 48 h pre-incubation,55%
same,% inhibition with respect to verapamil (DOX accumulation),P-gp [10]; 14 at 56 μM (MEC),80%
same,Time course of DOX accumulation,"P-gp [10]; 14 at 112 μM, at 20 min, compared with MFI in K562",fully restored the presence of DOX within Lucena 1 cells
same,Minimum effective concentration (MEC) in the DOX accumulation assay,"P-gp [10]; 1 h pre-incubation, 5 μM DOX 1 h",56 µM
same,Type of P-gp inhibition (Lineweaver-Burk double reciprocal plot of DOX retention),"P-gp [10]; 1 h with 14, then 1 h DOX",competitive inhibitor
same,Increase in DOX-associated MFI vs ethanol control,"P-gp [10]; 48 h pre-incubation, 14 at 112 μM, verapamil 30 μM, 5 μM DOX 1 h",1.4 fold
same,Increase in DOX accumulation (MFI) vs ethanol control,"P-gp [10]; no pre-incubation (0 h), 14 at 112 μM, verapamil 30 μM, 5 μM DOX 1 h",1.3 fold
same,Reversal fold (RF) to VLB,Lucena 1 cells [4]; [16],60 and 60.20
same,P-gp presence in the outer membrane,P-gp [11],No suppression of P-gp presence
same,Maximum stimulation of P-gp-ATPase activity,P-gp [12],29.49 ± 4.55%
same,Maximum stimulation of P-gp-ATPase activity,P-gp [12]; listed as pinoresinol,29%
same,Effect on ATPase activity of control membranes,"P-gp [12]; membranes from Sf9 cells expressing defective P-gp, up to 600 μM",no effect
same,Rho 123-associated MFI in K562,K562 cells [13],did not induce any increase
same,Enhancement of intracellular Rho 123 intensity in efflux assay,P-gp [14],1.5 fold
same,Effect on DOX efflux in K562,K562 cells [15],Neither 14 nor verapamil showed any significant effect
